Data as given in patent US20240270762A1, “PENICILLIN-BINDING PROTEIN INHIBITORS” (priority 2021, published 2024).
Converted amounts (≈) assume the structure as drawn.

Experiments:
[1] = target: T1, PBP2 from Neisseria gonorrhoeae (FA19) (Neisseria gonorrhoeae, UniProt P08149); assay: Bocillin-FL fluorescence polarization competition binding, N. gonorrhoeae PBP2; conditions: fluorescence polarization competition binding assay using Bocillin-FL, read-out: N. gonorrhoeae PBP2 Potency
T1 construct: made in house
T1 sequence (P08149 whole entry): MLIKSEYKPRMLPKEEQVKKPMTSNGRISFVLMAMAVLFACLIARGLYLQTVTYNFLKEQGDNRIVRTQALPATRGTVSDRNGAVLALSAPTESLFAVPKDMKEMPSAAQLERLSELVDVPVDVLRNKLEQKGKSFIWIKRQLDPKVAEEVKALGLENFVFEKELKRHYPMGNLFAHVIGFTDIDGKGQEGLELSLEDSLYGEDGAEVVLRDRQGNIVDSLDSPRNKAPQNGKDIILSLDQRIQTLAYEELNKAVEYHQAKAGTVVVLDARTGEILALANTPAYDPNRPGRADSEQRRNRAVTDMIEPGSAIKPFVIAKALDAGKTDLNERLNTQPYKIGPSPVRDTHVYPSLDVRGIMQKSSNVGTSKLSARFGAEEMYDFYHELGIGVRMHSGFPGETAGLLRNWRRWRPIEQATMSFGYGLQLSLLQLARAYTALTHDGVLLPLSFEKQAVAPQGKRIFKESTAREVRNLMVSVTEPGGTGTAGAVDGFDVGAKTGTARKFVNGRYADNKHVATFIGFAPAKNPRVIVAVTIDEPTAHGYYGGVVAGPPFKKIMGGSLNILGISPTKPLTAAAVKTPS
From the text: To determine the ability of boronic acid-based test PBP inhibitors to bind Penicillin Binding Proteins (PBPs), Bocillin-FL (fluorescently-labeled penicillin V; ThermoFisher Scientific) was used in a fluorescence polarization (FP) competition binding assay to assess inhibitor binding to PBP3 from Escherichia coli (K-12), PBP3 from Pseudomonas aeruginosa (PAO1), PBP1a and PBP3 from Acinetobacter baumannii (ATCC 19606), and PBP2 from Neisseria gonorrhoeae (FA19). PBPs were cloned and purified as described previously (E. coli PBP3, King, D. T, et al., ACS Infectious Diseases 2015, 1, 175-184; P. aeruginosa PBP3, Han et. al., PNAS 2010, 107 (51), 22002-22007; A. baumannii PBPs, Penwell et. al., Antimicrob. Agents Chemother. 2015, 59 (3), 1680-1689; N. gonorrhoeae PBP2, Singh et. al., J. Biol. Chem. 2019, 294 (38), 14020-14032). To establish assay conditions for competition binding, enzyme titration/saturation binding experiments were initially performed. Bocillin-FL was prepared at 0.2 μM in a buffer comprised of 50 mM Hepes (pH 8.0), 300 mM NaCl and 10% (v/v) glycerol for reactions with E. coli, P. aeruginosa and N. gonorrhoeae PBPs, and 25 mM Tris (pH 8.0), 200 mM NaCl, 10% (v/v) glycerol and 0.005% (v/v) Tween 20 for reactions with A. baumannii PBPs. Saturation binding was performed by mixing 40 μl of PBP solutions ranging in concentrations from 0-24 μM with 40 μl of the 0.2 μM Bocillin-FL solution, in individual wells of a black 384-well microplate. FP was measured immediately upon mixing (Excitation, 490 nm; Emission, 520 nm; g-factor, 0.96), using a Cytation3 (BioTek) microplate reader and measured continuously for up to 120 minutes. […] The competition binding assay (80 μl final volume) was validated using beta-lactams and PBPs at final concentrations of: 1.5 μM for E. coli PBP3; 0.75 μM for P. aeruginosa PBP3; 1 μM for A. baumannii PBP1a; 0.2 μM for A. baumannii PBP3; and 0.25 μM for N. gonorrhoeae PBP2. Bocillin-FL was at 0.1 μM (0.05 μM with A. baumannii PBP1a) and beta-lactam concentrations ranged from 0-1,000 μM. E. coli PBP3 was incubated with increasing concentrations of ampicillin in a black 384-well microplate (Corning) for 30 minutes. P. aeruginosa PBP3 was incubated for 15 minutes with aztreonam, whereas A. baumannii PBP1a and PBP3 were incubated for 15 minutes with meropenem, and then Bocillin-FL was added followed immediately by the FP measurement for up to 60 minutes. […] The beta-lactam potency was reported as the concentration of beta-lactam required to reduce the amount of PBP bound-Bocillin-FL by 50% (EC50). […] Binding assays for boronic acid PBP inhibitors were performed in an identical fashion for the respective PBPs.

[2] = system: E. coli ATCC 25922; assay: microbe, parasite or virus in culture; format: cell-based; conditions: Escherichia coli, ATCC25922, read-out: MIC E. coli 25922
[3] = system: E. coli 901C; assay: microbe, parasite or virus in culture; format: cell-based; conditions: Escherichia coli, read-out: MIC E. coli 901C
[4] = system: K. pneumoniae SI-117; assay: microbe, parasite or virus in culture; format: cell-based; conditions: Klebsiella pneumoniae, SI117, read-out: MIC K. pneumoniae SI-117
[5] = system: A. baumannii ATCC 19606; assay: microbe, parasite or virus in culture; format: cell-based; conditions: Acinetobacter baumannii, ATCC19606, read-out: MIC, A. baumannii ATCC 19606
[6] = system: P. aeruginosa ATCC 35151; assay: microbe, parasite or virus in culture; format: cell-based; conditions: Pseudomonas aeruginosa, ATCC35151, read-out: MIC P. aeruginosa ATCC 35151
[7] = system: P. aeruginosa (ΔmexAB-oprM); assay: Broth microdilution MIC in CAMHB; format: cell-based; conditions: Pseudomonas aeruginosa; read-out: MIC P. aeruginosa ΔmexAB-oprM
[8] = system: N. gonorrhoeae WHO G; assay: Liquid broth MIC in Fastidious broth; conditions: Neisseria gonorrhoeae, read-out: Minimum Inhibitory Concentration (MIC), N. gonorrhoeae WHO G
[9] = system: N. gonorrhoeae WHO L; assay: Liquid broth MIC in Fastidious broth; conditions: Neisseria gonorrhoeae, read-out: Minimum Inhibitory Concentration (MIC), N. gonorrhoeae WHO L
[10] = system: N. gonorrhoeae WHO K; assay: Liquid broth MIC in Fastidious broth; conditions: Neisseria gonorrhoeae, read-out: Minimum Inhibitory Concentration (MIC), N. gonorrhoeae WHO K
[11] = system: N. gonorrhoeae WHO X; assay: Liquid broth MIC in Fastidious broth; conditions: Neisseria gonorrhoeae, read-out: Minimum Inhibitory Concentration (MIC), N. gonorrhoeae WHO X
[12] = system: N. gonorrhoeae WHO Q; assay: Liquid broth MIC in Fastidious broth; conditions: Neisseria gonorrhoeae, read-out: Minimum Inhibitory Concentration (MIC), N. gonorrhoeae WHO Q
Experimental: Liquid broth-based assays were used for antibacterial testing of PBP inhibitors in Neisseria gonorrhoeae. Briefly, cryo-preserved bacterial cultures of clinical strains were streaked for isolation on Chocolate Agar (72 g/L (2×) GC Agar Base (BD #228950) and 2% (2×) Hemoglobin was autoclaved at 121° C. for 20 minutes to sterilize. Once cooled to ˜50° C. the 2×GC Agar Base and 2× Hemoglobin solutions are combined and 1% IsoVitaleX Enrichment (BD #211876) was added to the solution). Strains were incubated at 36° C. and 5% CO2 to allow growth of colonies, 24 hours before inoculum preparation. 2-fold serial dilutions of test compounds were conducted in a 96 well plate with a final volume of 75 μL per well at 2-fold the final desired concentration in Fastidious broth (Remel #R07664). For preparation of assay inoculum, a direct suspension was prepared by aseptically swabbing 10-15 colonies from agar plates into culture tubes containing 2 mL of fresh sterile saline. After the dilution plates were set up, direct suspensions were then diluted in a cuvette containing sterile saline and the optical density was measured at 600 nm. Inocula were diluted such that 75 μL of this culture in Fastidious broth results in a starting bacterial concentration of 5×10^5 CFU/mL when added to the dilution plates. The plates were incubated for ˜24 hours at 36° C. and 5% CO2.

[13] = system: N. gonorrhoeae CDC-0197; assay: Liquid broth MIC in Fastidious broth; conditions: Neisseria gonorrhoeae, CDC0197, read-out: Minimum Inhibitory Concentration (MIC), N. gonorrhoeae CDC-0197

Row | SMILES | EC50 [1] [µM] | MIC [2] [µg/mL] | MIC [3] [µg/mL] | MIC [4] [µg/mL] | MIC [5] [µg/mL] | MIC [6] [µg/mL] | MIC [7] [µg/mL] | MIC [8] [µg/mL] | MIC [9] [µg/mL] | MIC [10] [µg/mL] | MIC [11] [µg/mL] | MIC [12] [µg/mL] | MIC [13] [µg/mL]
1 | NC(=O)c1ccc(C(=O)NC(C(=O)N[C@H]2Cc3cccc(C(=O)O)c3OB2O)c2ccc(P(=O)(O)O)cc2)nc1 (stereo partly drawn) [Example 188, (3R)-3-(2-(5-carbamoylpicolinamido)-2-(4-phosphonophenyl)acetamido)-2-hydroxy-3,4-dihydro-2H-benzo[e][1,2]oxaborinine-8-carboxylic acid] | < 10 | > 128 | < 1 | > 128 | > 128 | 8 to 16 (≈ 14.1 to 28.2 µM) | 32 to 64 (≈ 56.3 to 113 µM) | < 1 | 4 to 8 (≈ 7.04 to 14.1 µM) | 1 to 2 (≈ 1.76 to 3.52 µM) | 4 to 8 (≈ 7.04 to 14.1 µM) | 1 to 2 (≈ 1.76 to 3.52 µM) | 1 to 2 (≈ 1.76 to 3.52 µM)
2 | O=C(O)c1cccc2c1OB(O)[C@@H](NC(=O)C(NC(=O)N1CCCC1=O)c1ccc(P(=O)(O)O)cc1)C2 (stereo partly drawn) [Example 57, (3R)-2-hydroxy-3-(2-(2-oxopyrrolidine-1-carboxamido)-2-(4-phosphonophenyl)acetamido)-3,4-dihydro-2H-benzo[e][1,2]oxaborinine-8-carboxylic acid] | < 10 | > 128 | < 1 | > 128 | > 128 | 2 to 4 (≈ 3.76 to 7.53 µM) | > 128 | < 1 | 16 to 32 (≈ 30.1 to 60.2 µM) | 4 to 8 (≈ 7.53 to 15.1 µM) | 4 to 8 (≈ 7.53 to 15.1 µM) | 1 to 2 (≈ 1.88 to 3.76 µM) | < 1
3 | CC(C)(C)C(=O)NC(C(=O)N[C@H]1Cc2cccc(C(=O)O)c2OB1O)c1ccc(P(=O)(O)O)cc1 (stereo partly drawn) [Example 29, (3R)-2-hydroxy-3-(2-(4-phosphonophenyl)-2-pivalamidoacetamido)-3,4-dihydro-2H-benzo[e][1,2]oxaborinine-8-carboxylic acid] | < 10 | > 128 | 8 to 16 (≈ 15.9 to 31.7 µM) | > 128 | 32 to 64 (≈ 63.5 to 127 µM) | 2 to 4 (≈ 3.97 to 7.93 µM) | 8 to 16 (≈ 15.9 to 31.7 µM) | 16 to 32 (≈ 31.7 to 63.5 µM) | 16 to 32 (≈ 31.7 to 63.5 µM) | 16 to 32 (≈ 31.7 to 63.5 µM) | 16 to 32 (≈ 31.7 to 63.5 µM) | 16 to 32 (≈ 31.7 to 63.5 µM) | 16 to 32 (≈ 31.7 to 63.5 µM)
4 | Nc1nc(C(=O)N[C@@H](C(=O)N[C@H]2Cc3cccc(C(=O)O)c3OB2O)c2ccc(P(=O)(O)O)cc2)cs1 (racemic) [Example 51, (R)-3-((S)-2-(2-aminothiazole-4-carboxamido)-2-(4-phosphonophenyl)acetamido)-2-hydroxy-3,4-dihydro-2H-benzo[e][1,2]oxaborinine-8-carboxylic acid and (R)-3-((R)-2-(2-aminothiazole-4-carboxamido)-2-(4-phosphonophenyl)acetamido)-2-hydroxy-3,4-dihydro-2H-benzo[e][1,2]oxaborinine-8-carboxylic acid] | < 10 | > 128 | < 1 | > 128 | > 128 | 2 to 4 (≈ 3.66 to 7.32 µM) | 32 to 64 (≈ 58.6 to 117 µM) | < 1 | 4 to 8 (≈ 7.32 to 14.6 µM) | 1 to 2 (≈ 1.83 to 3.66 µM) | 4 to 8 (≈ 7.32 to 14.6 µM) | 1 to 2 (≈ 1.83 to 3.66 µM) | < 1
5 | N[C@@H](C(=O)N[C@H]1Cc2cccc(C(=O)O)c2OB1O)c1ccc(P(=O)(O)O)cc1 (single isomer, unassigned) [Example 171] | 10 to 50 | > 128 | > 128 | > 128 | > 128 | > 128 | > 128 | > 64 | > 64 | > 64 | > 64 | > 64 | > 64
6 | CCN1CCN(C(=O)NC(C(=O)N[C@H]2Cc3cccc(C(=O)O)c3OB2O)c2ccc(CP(=O)(O)O)cc2)C(=O)C1=O (stereo partly drawn) [Example 20, (3R)-3-(2-(4-ethyl-2,3-dioxopiperazine-1-carboxamido)-2-(4-(phosphonomethyl)phenyl)acetamido)-2-hydroxy-3,4-dihydro-2H-benzo[e][1,2]oxaborinine-8-carboxylic acid] | < 10 | 8 to 16 (≈ 13.3 to 26.6 µM) | < 1 | > 128 | 32 to 64 (≈ 53.1 to 106 µM) | < 1 | 8 to 16 (≈ 13.3 to 26.6 µM) | < 1 | 1 to 2 (≈ 1.66 to 3.32 µM) | 1 to 2 (≈ 1.66 to 3.32 µM) | 1 to 2 (≈ 1.66 to 3.32 µM) | < 1 | < 1
7 | CS(=O)(=O)N1CCN(C(=O)NC(C(=O)N[C@H]2Cc3cccc(C(=O)O)c3OB2O)c2ccc(P(=O)(O)O)c(F)c2)C1=O (stereo partly drawn) [Example 12, (3R)-3-(2-(3-fluoro-4-phosphonophenyl)-2-(3-(methylsulfonyl)-2-oxoimidazolidine-1-carboxamido)acetamido)-2-hydroxy-3,4-dihydro-2H-benzo[e][1,2]oxaborinine-8-carboxylic acid] | < 10 | 32 to 64 (≈ 50.9 to 102 µM) | < 1 | > 128 | 32 to 64 (≈ 50.9 to 102 µM) | 8 to 16 (≈ 12.7 to 25.5 µM) | 32 to 64 (≈ 50.9 to 102 µM) | < 1 | < 1 | < 1 | < 1 | < 1 | < 1
